The source of these data is a melting point compilation (Tetko et al.; mined from patent text by program, amines drawn as free bases though some values may be those of a salt).

Where only a bound is given, the exact number is not on record here.

By melting point is commonly meant the temperature, or range, at which the solid turns liquid. As for `COC(=O)/C=C/C1=C(c2ccc(OC)cc2)c2ccc(OC)cc2CC1`, the melting point fell in the range of 116 to 118 °C. `CN(C)C1=Nc2cc(Br)ccc2N2CCc3cccc1c32` returned a melting point of 124 to 127 °C. In the case of `CN(C)c1ccc2cc(C#N)oc2c1` it was 70 to 71 °C.

Take `CCOC(=O)c1c(CSc2ccccc2)n(C)c2cc(Br)c(O)cc12`: the melting point fell in the range of 196 to 197 °C. The compound `CC(C)n1nc(-c2sc(NC(=O)Oc3ccccc3)nc2-c2ccccc2)ccc1=O` yielded a melting point of 205 to 207 °C. Take `CC(=O)OC1CCC(NC(=O)Nc2ccccc2CCc2cc(C(C)(C)C)c(O)c(C(C)(C)C)c2)CC1` (stereo unspecified): the melting point lay within 92 to 94 °C. Then `OC1CCCCC1n1cnc2cc(Cl)c(Cl)cc21` (stereo unspecified), with 236 to 238 °C; and `COc1ccc(C(=O)C2CCC(C)(C(=O)O)C2(C)C)c(OC)c1` (stereo unspecified), with 145 °C. Then `CC(=O)NCCC1CCc2ccc3nc(CCCc4ccccc4)oc3c21` (stereo unspecified), with 95 to 97 °C; and `COc1cc(C)ccc1OC(=O)c1ccccc1`, with 73 to 75 °C; and `CCOC(=O)C1=C(C)N(C(C)=O)C(c2cscn2)=NC1c1cccc(OC)c1` (stereo unspecified), with 130 to 131 °C. Then `O=c1c2ccccc2nc2n1CCc1c-2[nH]c2ccc(F)cc12`, with 290 °C; and `Cc1cc(O)ccc1Nc1nc(N)ncc1Oc1ccc(Cl)cc1`, with 199 to 201 °C. Regarding `O=S(=O)(c1ccccc1)N1C[C@@H](c2c[nH]c3ccccc23)[C@H](c2cn3c4c(cccc24)CCC3)C1`, the melting point is 115 to 125 °C. In the case of `Nc1ccc(CC(NC(=O)CCCCCCCCCCNC(=O)C(c2ccccc2)c2ccccc2)c2ccccc2)cc1` (stereo unspecified) it was 96 to 102 °C; in that of `O=C(N[C@H]1CC[C@H](CCN2CCC(c3cccc4c3CCO4)CC2)CC1)C(F)(F)F`, 173 °C. Turning to `CCOC(=O)[C@H](CCc1ccccc1)N[C@@H](C)C(=O)N1N=C(c2ccccc2)S[C@H]1C(=O)O`, the melting point was in the range of 180 to 182 °C.

Take `COc1cc(C(F)(F)F)nc2c(N3CCC4(CC3)OCCO4)ccc(F)c12`: the melting point is 101 to 103 °C. Then `Cc1ncc2n1-c1ccc(Cl)cc1C(c1ccccc1F)=NC2O` (stereo unspecified), with 185 to 186 °C. For the compound `N#Cc1cc2sccc2nc1Cl`, the melting point was 222 to 224 °C. In turn, `COc1ccc(Oc2cccc3ncnc(NC(C)=O)c23)cc1` yielded a melting point of 174 to 175 °C. Take `O=C(O)c1ccc(C(=O)N2CCOCC2)nc1`: the melting point was in the range of 181 to 183 °C. Then `O=C(O)c1cccc2ccc3c4ccccc4[nH]c3c12`, with 343 °C; and `Clc1nc(-c2ccncc2)cs1`, with 124 to 125 °C; and `CNC(=O)[C@@H](C[C@H](O)[C@H](CC1CCCCC1)NC(=O)[C@H](Cc1cscn1)NC(=O)[C@@H](CC(=O)N1CCOCC1)Cc1ccccc1)C(C)(C)O`, with 150 to 152 °C. Then `CN(C(=O)Nc1ccc(Cl)c(Cl)c1)S(=O)(=O)C(C)(C)C`, with 116 °C; and `COc1cc2sc(C#N)cc2cc1OC(F)F`, with 99 to 101 °C.

With `COC(=O)c1cc(OC)cc(C(=O)OC)c1`, the melting point lay within 108 to 109 °C. `O=C(Nc1ccc(OCCN2CCOCC2)c2ccccc12)c1cc(F)cc(N2CCOCC2)c1` came in with a melting point of 123 to 124 °C. On to `O=C(O)c1cn(C2CC2)c2c(C(F)(F)F)c(N3CCN(c4ncccn4)CC3)c(F)cc2c1=O`, for which the melting point lay in the range of 285 to 287 °C. Then `COc1cc(OC)c2c(=O)[nH]c(-c3ccc4[nH]c(CO)cc4c3)nc2c1`, with 264 to 265 °C.

In turn, `COC(=O)[C@@H]1CCCN1S(=O)(=O)c1ccc(Cl)c(COc2cccc3cc(C(F)(F)F)c(C)nc23)c1Cl` had a melting point of 165 to 167 °C. In the case of `Cc1nc(Cn2cnc3c2c(=O)[nH]c(=O)n3C)no1` it was 262 to 264 °C; in that of `CN1Cc2cc(F)ccc2-n2c(c(C#CC(C)(O)C3CC3)[nH]c2=O)C1` (stereo unspecified), 191 to 192 °C; in that of `CCCCCCCCCC[C@H](CC(=O)OC(C)(C)C)C(=O)N1C(=O)OC[C@@H]1C(C)C`, 42 to 43 °C.

With `C=CCn1c(NNC(=O)CCCl)nc2ccccc2c1=O`, the melting point lay in the range of 151 to 153 °C. Then `COc1ccc(-n2c(CF)nc3ccc([N+](=O)[O-])cc3c2=O)c(C)c1`, with 190 to 192 °C; and `CCC(CNC(=O)c1ccc(C(F)(F)F)c(NC(C)=O)c1)OC(C)=O` (stereo unspecified), with 121 °C; and `O=S(=O)(NCc1ccccc1)c1ccc2nc(S)sc2c1`, with 214 to 215 °C.

In turn, `Cc1nc2ccc(C(=O)NS(=O)(=O)c3ccccc3)nc2n1Cc1ccc(C(=O)O)cc1Cl` gave a melting point of 155 to 160 °C. Consider `Cc1ccccc1Sc1c(O)c2c(Cl)cc(Cl)cc2[nH]c1=O`, for which the melting point is above 300 °C.

Compound `CCOC(=O)C(C)(C)Oc1ccc(CNc2ccc(Cl)cc2)cc1OC` had a melting point of 73 to 74 °C.

As to `Cc1c(Cc2ccc(Cl)cc2)cccc1[N+](=O)[O-]`, the melting point was in the range of 84 to 85 °C. As for `O=S1(=O)NC(C2CCCCC2)Nc2ccc(-c3ccccc3F)cc21` (stereo unspecified), the melting point was 249 to 250 °C.

In turn, `O=C(CBr)c1cc(OCc2ccccc2)no1` returned a melting point of 80 to 81 °C. Then `CCc1cc(Cl)c(OC)c(C(=O)N[C@H]2CCN(CCCC(=O)N3CCCC3)C[C@H]2OC)c1O` (relative stereo), with 90.8 °C.

The compound `COC(=O)C(NS(=O)(=O)c1ccc(-c2ccc(NC(=O)c3oc4cccc(C(O)CO)c4c3C)cc2)cc1)C(C)C` (stereo unspecified) showed a melting point of 90 to 95 °C.

`O=C(Nc1nc(-c2ccccn2)nc2ccccc12)C(F)(F)F` registered a melting point of 245 to 248 °C. Then `Cc1nc2ccc(F)cc2c(=O)n1-c1ccccc1Cl`, with 137 to 138 °C; and `COc1ccc(C2=NN(C3CCN(S(=O)(=O)c4ccccc4F)CC3)C(=O)CC2)cc1OC`, with 198 to 199 °C; and `CCCCOc1nc(N)c2[nH]c(=O)n(CCSc3cccc(CC(=O)O)c3)c2n1`, with 205 to 207 °C.

Turning to `O=C1c2ccc([N+](=O)[O-])cc2C(=O)N1C1CCN(Cc2ccccc2)CC1`, the melting point was in the range of 240 to 242 °C.

Consider `O=C1CCC(O)(c2ccccc2Cc2ccccc2)CC1`, for which the melting point was in the range of 138 to 140 °C. Then `Nc1nc2ccccc2c2c1nc(-c1ccccc1)n2CCCCNC(=O)Nc1ccc(F)cc1`, with 145 to 150 °C; and `OCc1nc2cc(CN3CCN(C(c4ccccc4)c4ccccc4)CC3)ccc2[nH]1`, with 137 °C; and `Cc1nc(-c2ccc(C(F)(F)F)cc2)[nH]c1CN1CCN(C(c2ccccc2)c2ccccc2)CC1`, with 244 °C. Turning to `O=Cc1c2n(c3ccncc13)CCC2`, the melting point was 150 to 151 °C. Then `OC(c1ccc2noc(-c3cccc(Cl)c3)c2c1)c1nc(-c2ccccc2)cs1` (stereo unspecified), with 136 °C. Then `COC(=O)c1nc(-c2ccc(Cl)c(OC)c2F)c(F)c(N)c1Cl`, with 169 to 170 °C; and `CCOC(=O)c1n[nH]c2c(=S)[nH]c3cc(Cl)ccc3c(=O)c12`, with 248 to 253 °C. Then `COC(=O)c1c(C)nn(-c2ccccn2)c1S(N)(=O)=O`, with 196 to 198 °C; and `COc1ccc(CCNC(=O)c2ccc3n2Cc2ccccc2N(C(=O)c2ccc(-c4ccccc4C)c(C)c2)C3)cc1OC`, with 130 to 136 °C; and `N#Cc1cc(C(=O)NNC(=O)c2occ(-c3cccc(OCc4ccccc4)c3)c2-c2cccc(OCc3ccccc3)c2)ccc1O`, with 171 to 174 °C. The compound `COc1ccc(C(=O)Nc2ccccc2)cc1CNS(=O)(=O)c1cc(Cl)cc(Cl)c1` came in with a melting point of 203 to 206 °C. The compound `CC(C)n1nc(-c2c(-c3ccccc3)nn3c(N)cccc23)ccc1=O` gave a melting point of 218 to 219 °C.

For the compound `CC(C)CN1C(=O)C(C)(C)C(=O)Nc2cc(C#N)ccc21`, the melting point is 204 to 205 °C.

For the compound `CCCOCCOC(=O)C1=C(C)NC(C)=C(S(=O)(=O)NC(C)C)C1c1cccc([N+](=O)[O-])c1` (stereo unspecified), the melting point lay in the range of 155 to 158 °C.

Compound `Cc1cc(=O)c2c(o1)CCOC2` registered a melting point of 107 to 110 °C. In the case of `CC(=O)Oc1ccc(C(=O)c2ccc(C)c(OC(C)=O)c2)cc1` it was 60 to 64 °C; in that of `O=C1CCCc2ccc(OCCCCN3CCN(c4cccc5c4OCCCO5)CC3)nc2N1`, 200 to 201 °C.

`COc1cc(O)c2c(c1)OC(C(C)(C)C=O)CC2=O` (stereo unspecified) displayed a melting point of 93 to 94 °C. Then `CC(C)c1cccc(-c2c(-c3ccc4nn(C)cc4c3)nsc2NC(=O)[C@@H]2C[C@H]2C)n1`, with 142 to 144 °C. Then `Cc1nc(N2CCC(Cc3ccc(F)cc3)C2=O)sc1C(=O)NCc1ccc(F)cc1` (stereo unspecified), with 196 to 197 °C. Regarding `Cc1ccc(NC(=O)C#Cc2ccccc2)cc1`, the melting point is 139 to 141 °C. For the compound `O=[N+]([O-])c1cc(F)c(N2CCSCC2)c(F)c1`, the melting point lay in the range of 104 to 105 °C. `CC(C)N1CC(=O)N(C(C)C)CC1=O` gave a melting point of 177 to 180 °C. Then `CCOc1ccc(C(=O)C2CC=CCC2C(=O)O)cc1Cl` (stereo unspecified), with 123 to 125 °C. `O=c1oc(-c2cccc(C(F)(F)F)c2)nc2cccc(F)c12`: the melting point was in the range of 115 to 121 °C. In turn, `COc1ccccc1Cc1ccc(Cl)nn1` came in with a melting point of 63 °C. In the case of `Cc1ccc(OCCCCCCCCCCC(Cl)(Cl)C(=O)O)cc1` it was 67 to 68 °C. In the case of `c1ccc(OCCCN2CCC(CNc3nc4ccccc4s3)CC2)cc1`, the melting point is 114 °C. For the compound `CC(=O)N1CCC(CCC(=O)c2cc3c4c(c2)CC(=O)N4CCC3)CC1`, the melting point was in the range of 119 to 120 °C. `COCCCNC1(c2ccccc2Cl)C(=O)N(S(=O)(=O)c2ccc3c(c2)CCN3C(=O)OC)c2ccc(Cl)cc21` (stereo unspecified) displayed a melting point of 98 °C. In the case of `O=C1OC2(CCNCC2)CN1Cc1ccccc1` it was 69 to 71 °C; in that of `COc1cc(C)c([N+](=O)[O-])cc1F`, 95 to 95.5 °C. Then `Cn1c(Sc2cccc(C(F)(F)F)c2)nc2c(-c3cccc(C(=O)NCCO)c3)cccc21`, with 138 to 139 °C.
